Experimental data as given in US20050165024A1, “Urea derivatives as kinase modulators” (Ambit Biosciences Corporation, priority 2003, published 2005).

What follows are compounds tested against T1, p38-alpha(FKIN) (Homo sapiens, UniProt Q16539) (assay: Binding constant (Kd) measurement, phage-displayed kinase competition binding assay: p38). Details: Kd class symbols.
T1 construct: made in house
Description: (§1) The term “ND” represents non-determined values.

T1 sequence (Q16539 whole entry): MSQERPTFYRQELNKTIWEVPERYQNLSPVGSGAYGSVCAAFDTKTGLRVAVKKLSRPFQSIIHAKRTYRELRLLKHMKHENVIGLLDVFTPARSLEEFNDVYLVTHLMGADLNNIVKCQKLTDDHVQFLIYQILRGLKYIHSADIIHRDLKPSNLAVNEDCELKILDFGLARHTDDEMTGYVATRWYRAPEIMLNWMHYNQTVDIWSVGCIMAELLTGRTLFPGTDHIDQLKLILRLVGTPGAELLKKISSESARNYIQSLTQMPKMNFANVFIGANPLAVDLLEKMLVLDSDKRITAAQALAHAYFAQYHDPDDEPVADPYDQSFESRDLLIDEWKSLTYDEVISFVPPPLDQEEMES

Q: Which Kd does the source give for Cc1ccc(NC(=O)Nc2cc(C(C)(C)C)on2)cc1 here?
A: Its Kd is 1000 to 10000 nM.

Q: Which Kd does the source give for CC(C)(C)c1cc(NC(=O)Nc2ccc(O)cc2)no1 here?
A: The Kd was 1000 to 10000 nM.

Q: How did the Kd turn out when CC(C)(C)c1cc(NC(=O)Nc2ccc(Cl)cc2)on1 was run?
A: The Kd was 1000 to 10000 nM.

Q: COc1ccc(NC(=O)Nc2cc(C(C)(C)C)on2)cc1 was tested. Which Kd did it give?
A: Its Kd is 1000 to 10000 nM.

Q: For COc1ccc(NC(=O)Nc2cc(C(C)(C)C)no2)cc1, which Kd is on record?
A: The Kd was 1000 to 10000 nM.

Q: With CC(C)(C)c1cc(NC(=O)Nc2ccc(Cl)cc2)no1 as the compound, how does the Kd read?
A: Its Kd is 1000 to 10000 nM.

Q: Which Kd does the source give for CC(C)(C)c1cc(NC(=O)Nc2ccc(Br)cc2F)on1 here?
A: The Kd was 100 to 1000 nM.

Q: CC(C)(C)c1cc(NC(=O)Nc2ccc(OCCN3CCCCC3)c3ccccc23)no1 was tested. Which Kd did it give?
A: The Kd was less than 100 nM.

Q: For CSc1ccc(NC(=O)Nc2cc(C(C)(C)C)no2)cc1, which Kd is on record?
A: The Kd was 1000 to 10000 nM.

Q: Which Kd does the source give for CSc1ccc(NC(=O)Nc2cc(C(C)(C)C)on2)cc1 here?
A: The Kd was 1000 to 10000 nM.

Q: COc1ccc(NC(=O)Nc2cc(C(C)(C)C)nn2-c2ccc(C)cc2)cc1 was tested. Which Kd did it give?
A: Its Kd is 100 to 1000 nM.

Q: For Cc1ccc(-n2nc(C(C)(C)C)cc2NC(=O)Nc2ccc(Br)cc2C(F)(F)F)cc1, which Kd is on record?
A: The Kd was 100 to 1000 nM.

Q: CC(C)(C)c1cc(NC(=O)NCc2cccc(Cl)c2)no1 was tested. Which Kd did it give?
A: Its Kd is 100 to 1000 nM.

Q: With Cc1ccc(-n2nc(C(C)(C)C)cc2NC(=O)Nc2cc(C(C)(C)C)on2)cc1 as the compound, how does the Kd read?
A: Its Kd is 100 to 1000 nM.

Q: For Cc1ccc(-n2nc(C(C)(C)C)cc2NC(=O)Nc2ccc(Cl)c(C(F)(F)F)c2)cc1, which Kd is on record?
A: Its Kd is 100 to 1000 nM.

Q: For Cc1ccc(-n2nc(C(C)(C)C)cc2NC(=O)Nc2ccc(Cl)cc2)cc1, which Kd is on record?
A: Its Kd is less than 100 nM.

Q: Which Kd does the source give for C[S+]([O-])c1ccc(NC(=O)Nc2cc(C(C)(C)C)on2)cc1 (stereo not drawn) here?
A: The Kd was 1000 to 10000 nM.

Q: For Cc1ccc(-n2nc(C(C)(C)C)cc2NC(=O)Nc2ccc(O)cc2)cc1, which Kd is on record?
A: Its Kd is 100 to 1000 nM.

Q: With O=C(Nc1ccccc1)Nc1cc(Cl)c([N+](=O)O)cc1O as the compound, how does the Kd read?
A: Its Kd is 100 to 1000 nM.

Q: CC(C)(C)c1cc(NC(=O)Nc2ccccc2)no1 was tested. Which Kd did it give?
A: Its Kd is 1000 to 10000 nM.

Q: How did the Kd turn out when Cc1c(Cl)cccc1NC(=O)Nc1cc(C(C)(C)C)on1 was run?
A: The Kd was 100 to 1000 nM.

Q: Cc1ccc(-n2nc(C(C)(C)C)cc2NC(=O)Nc2ccc(OCc3ccccc3)cc2)cc1 was tested. Which Kd did it give?
A: Its Kd is 100 to 1000 nM.

Q: Cc1ccc(-n2nc(C(C)(C)C)cc2NC(=O)Nc2ccc(OCCN3CCOC(CO)C3)c3ccccc23)cc1 (stereo not drawn) was tested. Which Kd did it give?
A: The Kd was less than 100 nM.

Q: How did the Kd turn out when CC(C)(C)c1cc(NC(=O)Nc2ccc(NC(=O)c3cccnc3)cc2)no1 was run?
A: The Kd was 100 to 1000 nM.

Q: For NC(=O)c1cc(Oc2ccc(Nc3c(Nc4ccc(Cl)c(C(F)(F)F)c4)c(=O)c3=O)cc2)ccn1, which Kd is on record?
A: The Kd was 100 to 1000 nM.

Q: Cn1nc(C(C)(C)C)cc1NC(=O)Nc1cccc2ccccc12 was tested. Which Kd did it give?
A: Its Kd is 100 to 1000 nM.

Q: For CC(C)(C)c1cc(NC(=O)Nc2ccc(NC(=O)c3cnc4ccccc4c3)cc2)no1 [drawing 680], which Kd is on record?
A: The Kd was 1000 to 10000 nM.

These compounds were tested against T2, STK10(DKIN) (Homo sapiens, UniProt O94804) (assay: Binding constant (Kd) measurement, phage-displayed kinase competition binding assay: STK10). Details: Kd class symbols.
T2 construct: STK10(DKIN); made in house
T2 sequence (O94804 36-294 limits assumed): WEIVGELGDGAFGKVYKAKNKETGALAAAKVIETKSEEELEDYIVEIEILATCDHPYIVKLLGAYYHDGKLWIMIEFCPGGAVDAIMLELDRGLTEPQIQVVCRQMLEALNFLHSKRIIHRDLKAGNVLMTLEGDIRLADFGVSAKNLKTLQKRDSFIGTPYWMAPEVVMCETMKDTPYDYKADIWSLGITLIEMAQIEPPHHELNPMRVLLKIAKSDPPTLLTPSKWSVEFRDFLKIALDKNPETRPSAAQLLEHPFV
Description: as §1

Q: With CC(C)(C)c1cc(NC(=O)Nc2ccc(NC(=O)c3nccnc3N)cc2)no1 as the compound, how does the Kd read?
A: The Kd was 100 to 1000 nM.

Q: For CC(C)(C)c1cc(NC(=O)Nc2ccc(N3C(=O)c4ccccc4C3=O)cc2)no1, which Kd is on record?
A: The Kd was less than 100 nM.

Q: For CC(C)(C)c1cc(NC(=O)Nc2ccc(NC(=O)c3ncccc3O)cc2)no1 [drawing 696], which Kd is on record?
A: The Kd was 100 to 1000 nM.

Q: With CC(C)(C)c1cc(NC(=O)Nc2ccc(Nc3nc(Cl)nc4[nH]cnc34)cc2)no1 [drawing 697] as the compound, how does the Kd read?
A: Its Kd is 100 to 1000 nM.

Q: COc1cc2ncnc(Nc3ccc(NC(=O)Nc4cc(C(C)(C)C)on4)cc3)c2cc1OC [drawing 698] was tested. Which Kd did it give?
A: The Kd was less than 100 nM.

Q: For COc1cc2nc(Cl)nc(Nc3ccc(NC(=O)Nc4cc(C(C)(C)C)on4)cc3)c2cc1OC [drawing 699], which Kd is on record?
A: The Kd was less than 100 nM.

Q: How did the Kd turn out when COc1cc(OC)nc(Oc2cccc(C(=O)Nc3ccc(NC(=O)Nc4cc(C(C)(C)C)on4)cc3)c2)n1 [drawing 700] was run?
A: The Kd was 1000 to 10000 nM.

Q: With CC(C)(C)c1cc(NC(=O)Nc2ccc(Nc3ncnc4[nH]cnc34)cc2)no1 [drawing 701] as the compound, how does the Kd read?
A: Its Kd is less than 100 nM.

Q: CC(C)(C)c1cc(NC(=O)Nc2ccc(Nc3nc(N)nc4[nH]cnc34)cc2)no1 [drawing 703] was tested. Which Kd did it give?
A: Its Kd is 100 to 1000 nM.

What follows are compounds tested against T3, MKNK2 (DKIN) (Homo sapiens, UniProt Q9HBH9) (assay: Binding constant (Kd) measurement, phage-displayed kinase competition binding assay: MKNK2). Details: Kd class symbols.
T3 construct: (DKIN); made in house
T3 sequence (Q9HBH9 84-388 limits assumed): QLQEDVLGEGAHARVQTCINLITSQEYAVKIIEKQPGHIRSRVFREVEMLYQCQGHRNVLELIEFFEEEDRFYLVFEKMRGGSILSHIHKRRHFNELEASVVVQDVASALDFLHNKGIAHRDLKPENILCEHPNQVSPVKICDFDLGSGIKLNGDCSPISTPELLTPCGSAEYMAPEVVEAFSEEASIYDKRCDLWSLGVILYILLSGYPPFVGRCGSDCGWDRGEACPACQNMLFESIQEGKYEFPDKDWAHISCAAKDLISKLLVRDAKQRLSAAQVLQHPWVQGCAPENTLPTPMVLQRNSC
Description: as §1

Q: Which Kd does the source give for Cc1cnc(C(=O)Nc2ccc(NC(=O)Nc3cc(C(C)(C)C)on3)cc2)cn1 here?
A: The Kd was 100 to 1000 nM.

Q: With CC(C)(C)c1cc(NC(=O)Nc2ccc(NC(=O)c3ccc4ncccc4c3)cc2)no1 as the compound, how does the Kd read?
A: Its Kd is 1000 to 10000 nM.

Q: Which Kd does the source give for CC(C)(C)c1cc(NC(=O)Nc2ccc(NC(=O)c3cnnc4ccccc34)cc2)no1 here?
A: Its Kd is less than 100 nM.

Q: With CC(C)(C)c1cc(NC(=O)Nc2ccc(NC(=O)c3cccc4nsnc34)cc2)no1 as the compound, how does the Kd read?
A: Its Kd is 1000 to 10000 nM.

Q: How did the Kd turn out when CC(C)(C)c1cc(NC(=O)Nc2ccc(NC(=O)c3cscn3)cc2)no1 was run?
A: Its Kd is 100 to 1000 nM.

Q: With CC(C)(C)c1cc(NC(=O)Oc2ccc(NC(=O)c3nccnc3N)cc2)no1 as the compound, how does the Kd read?
A: The Kd was 100 to 1000 nM.

Q: Which Kd does the source give for Cc1cnc(C(=O)Nc2ccc(NC(=O)Nc3cc(C(C)(C)C)on3)cc2)c(C(=O)O)n1 here?
A: The Kd was 1000 to 10000 nM.

Q: Which Kd does the source give for CC(C)(C)c1cc(NC(=O)Nc2ccc(Nc3nc(Cl)nc4[nH]cnc34)cc2)no1 [drawing 682] here?
A: The Kd was 1000 to 10000 nM.

Q: With COc1cc2nc(Cl)nc(Nc3ccc(NC(=O)Nc4cc(C(C)(C)C)on4)cc3)c2cc1OC [drawing 684] as the compound, how does the Kd read?
A: The Kd was 1000 to 10000 nM.

Q: Which Kd does the source give for CC(C)(C)c1cc(NC(=O)Nc2ccc(Nc3ncnc4[nH]cnc34)cc2)no1 [drawing 686] here?
A: Its Kd is less than 100 nM.

Q: With CC(C)(C)c1cc(NC(=O)Nc2ccc(NC(=O)c3ncccc3O)cc2)no1 [drawing 687] as the compound, how does the Kd read?
A: The Kd was less than 100 nM.

Q: CC(C)(C)c1cc(NC(=O)Nc2ccc(NC(=O)c3cnc4ccccc4c3)cc2)no1 [drawing 689] was tested. Which Kd did it give?
A: The Kd was 1000 to 10000 nM.

Q: With CC(C)(C)c1cc(NC(=O)Nc2ccc(Nc3nc(N)nc4[nH]cnc34)cc2)no1 [drawing 691] as the compound, how does the Kd read?
A: Its Kd is less than 100 nM.

Q: With COc1cc2ncnc(Nc3ccc(NC(=O)Nc4cc(C(C)(C)C)on4)cc3)c2cc1OC [drawing 692] as the compound, how does the Kd read?
A: Its Kd is less than 100 nM.

Q: With COc1cc(OC)nc(Oc2cccc(C(=O)Nc3ccc(NC(=O)Nc4cc(C(C)(C)C)on4)cc3)c2)n1 [drawing 693] as the compound, how does the Kd read?
A: The Kd was 100 to 1000 nM.
